Experimental data reported in PubChem BioAssay (NCI).
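Results reflect a 48-hour exposure of cells in 96-well plates to compound at five concentrations. At the GI50, growth is halved. The concentration for full growth arrest is given as TGI.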

Tests used:
Assay in all cases: NCI tumour cell line growth inhibition, 48 h
[1] = tested on: NCI-H522 lung
[2] = tested on: SNB-75 CNS
[3] = tested on: A549 NSCLC
[4] = tested on: HCT-116 colon
[5] = tested on: SK-MEL-2 melanoma
[6] = tested on: RPMI-8226 leukemia
[7] = tested on: SF-268 CNS
[8] = tested on: SK-MEL-28 melanoma
[9] = tested on: SK-MEL-5 melanoma
[10] = tested on: MDA-MB-435
[11] = tested on: OVCAR-5 ovarian
[12] = tested on: TK-10 renal
[13] = tested on: SF-539 CNS
[14] = tested on: HCT-15 colon
[15] = tested on: ACHN renal
[16] = tested on: HOP-92 NSCLC
[17] = tested on: DU-145 prostate
[18] = tested on: T-47D breast
[19] = tested on: UACC-257 melanoma
[20] = tested on: NCI-H460 lung
[21] = tested on: OVCAR-3 ovarian
[22] = tested on: NCI-H226 lung
[23] = tested on: NCI/ADR-RES ovarian
[24] = tested on: NCI-H23 lung
[25] = tested on: SK-OV-3 ovarian
[26] = tested on: HCC-2998 colon
[27] = tested on: EKVX NSCLC
[28] = tested on: MOLT-4 leukemia
[29] = tested on: BT-549 breast
[30] = tested on: CAKI-1 renal
[31] = tested on: SR leukemia
[32] = tested on: LOX IMVI melanoma
[33] = tested on: SF-295 CNS
[34] = tested on: MCF7 breast
[35] = tested on: MDA-MB-231 breast
[36] = tested on: A498 renal
[37] = tested on: K-562 leukemia
[38] = tested on: HOP-62 NSCLC
[39] = tested on: OVCAR-4 ovarian
[40] = tested on: HS 578T breast
[41] = tested on: PC-3 prostate
[42] = tested on: SW-620 colon
[43] = tested on: OVCAR-8 ovarian
[44] = tested on: HT29 colon
[45] = tested on: CCRF-CEM leukemia
[46] = tested on: M14 melanoma
[47] = tested on: IGROV1 ovarian
[48] = tested on: 786-0 renal
[49] = tested on: MDA-N
[50] = tested on: SNB-19 CNS
[51] = tested on: SN12C renal
[52] = tested on: KM12 colon
[53] = tested on: UO-31 renal
[54] = tested on: HL-60(TB) leukemia
[55] = tested on: COLO 205 colon
[56] = tested on: RXF 393 renal
[57] = tested on: U251 CNS
[58] = tested on: UACC-62 melanoma
[59] = tested on: MALME-3M melanoma
[60] = tested on: M19-MEL melanoma
[61] = tested on: LXFL 529 NSCLC
[62] = tested on: HOP-18 NSCLC
[63] = tested on: DMS 273 small cell lung
[64] = tested on: XF 498 CNS
[65] = tested on: KM20L2 colon

## C[C@@H](Oc1ccc(Oc2cnc3ccc(Cl)cc3n2)cc1)C(=O)O
[1]
  TGI: > 100 µM
[2]
  TGI: > 100 µM
[3]
  TGI: > 100 µM
[4]
  TGI: > 100 µM
[5]
  TGI: > 100 µM
[6]
  TGI: > 100 µM
[7]
  TGI: > 100 µM
[8]
  TGI: > 100 µM
[9]
  GI50: > 82.1 µM
  TGI: > 100 µM
[10]
  TGI: > 100 µM
[11]
  TGI: > 100 µM
[12]
  TGI: > 100 µM
[13]
  GI50: > 87.9 µM
  TGI: > 100 µM
[14]
  TGI: > 100 µM
[15]
  TGI: > 100 µM
[16]
  TGI: > 100 µM
[17]
  TGI: > 100 µM
[18]
  TGI: > 100 µM
[19]
  TGI: > 100 µM
[20]
  TGI: > 100 µM
[21]
  TGI: > 100 µM
[22]
  GI50: 67.1 µM
  TGI: > 100 µM
[23]
  TGI: > 100 µM
[24]
  TGI: > 100 µM
[25]
  TGI: > 100 µM
[26]
  TGI: > 100 µM
[27]
  TGI: > 100 µM
[28]
  GI50: > 23.7 µM
  TGI: > 100 µM
[29]
  TGI: > 100 µM
[30]
  TGI: > 100 µM
[31]
  GI50: > 24.3 µM
  TGI: > 100 µM
[32]
  TGI: > 100 µM
[33]
  TGI: > 100 µM
[34]
  GI50: 18.3 µM
  TGI: > 100 µM
[35]
  TGI: > 100 µM
[36]
  TGI: > 100 µM
[37]
  TGI: > 100 µM
[38]
  GI50: > 85.3 µM
  TGI: > 100 µM
[39]
  TGI: > 100 µM
[40]
  GI50: 69.6 µM
  TGI: > 100 µM
[41]
  TGI: > 100 µM
[42]
  TGI: > 100 µM
[43]
  TGI: > 100 µM
[44]
  TGI: > 100 µM
[45]
  TGI: > 100 µM
[46]
  TGI: > 100 µM
[47]
  TGI: > 100 µM
[48]
  TGI: > 100 µM
[49]
  TGI: > 100 µM
[50]
  TGI: > 100 µM
[51]
  TGI: > 100 µM
[52]
  TGI: > 100 µM
[53]
  TGI: > 100 µM
[54]
  TGI: > 100 µM
[55]
  TGI: > 100 µM
[56]
  GI50: > 30.5 µM
  TGI: > 100 µM
[57]
  TGI: > 100 µM
[58]
  GI50: 46.4 µM
  TGI: > 100 µM
[59]
  TGI: > 100 µM

## CC(=O)Nc1ncc2c(n1)-c1ccccc1OC2c1ccccc1 (stereo not given)
[1]
  TGI: > 100 µM
[2]
  TGI: 40.5 µM
[3]
  TGI: > 100 µM
[4]
  TGI: > 100 µM
[5]
  TGI: > 100 µM
[6]
  TGI: > 100 µM
[7]
  TGI: 63.5 µM
[9]
  TGI: > 100 µM
[10]
  TGI: > 100 µM
[11]
  TGI: > 100 µM
[12]
  TGI: 63.2 µM
[13]
  TGI: 35.1 µM
[14]
  TGI: > 100 µM
[15]
  TGI: 28.2 µM
[16]
  TGI: 41.4 µM
[17]
  TGI: > 100 µM
[18]
  TGI: 68.4 µM
[19]
  TGI: > 100 µM
[20]
  TGI: > 100 µM
[21]
  TGI: > 100 µM
[22]
  TGI: 52.1 µM
[23]
  TGI: > 100 µM
[24]
  TGI: > 100 µM
[25]
  TGI: > 100 µM
[27]
  TGI: > 100 µM
[28]
  TGI: > 100 µM
[29]
  TGI: > 100 µM
[30]
  TGI: 68.3 µM
[31]
  TGI: > 100 µM
[32]
  TGI: > 100 µM
[33]
  TGI: > 100 µM
[34]
  TGI: > 100 µM
[35]
  TGI: 75.3 µM
[36]
  TGI: 51.6 µM
[39]
  TGI: 85.5 µM
[40]
  TGI: 55.4 µM
[41]
  TGI: > 100 µM
[42]
  TGI: > 100 µM
[43]
  TGI: 66.2 µM
[44]
  TGI: > 100 µM
[45]
  TGI: > 100 µM
[46]
  TGI: > 100 µM
[47]
  TGI: > 100 µM
[48]
  TGI: 38.2 µM
[49]
  TGI: > 100 µM
[50]
  TGI: 89.6 µM
[51]
  TGI: > 100 µM
[52]
  TGI: > 100 µM
[53]
  TGI: > 100 µM
[54]
  TGI: > 100 µM
[55]
  TGI: > 100 µM
[56]
  TGI: 63.2 µM
[57]
  TGI: > 100 µM
[58]
  TGI: 36.4 µM

## COC(=O)C(=NNc1ccccc1[N+](=O)[O-])C(=O)OC
[1]
  TGI: > 100 µM
[3]
  TGI: > 100 µM
[4]
  TGI: > 100 µM
[5]
  TGI: > 100 µM
[60]
  TGI: > 100 µM
[7]
  TGI: > 100 µM
[8]
  TGI: > 100 µM
[11]
  TGI: > 100 µM
[12]
  TGI: > 100 µM
[13]
  TGI: > 100 µM
[15]
  TGI: > 100 µM
[16]
  TGI: > 100 µM
[61]
  TGI: > 100 µM
[19]
  TGI: > 100 µM
[20]
  TGI: > 100 µM
[62]
  TGI: > 100 µM
[22]
  TGI: > 100 µM
[24]
  TGI: > 100 µM
[25]
  TGI: > 100 µM
[26]
  TGI: > 100 µM
[27]
  TGI: > 100 µM
[28]
  TGI: > 100 µM
[30]
  TGI: > 100 µM
[31]
  TGI: > 100 µM
[32]
  TGI: > 100 µM
[33]
  TGI: > 100 µM
[63]
  TGI: > 100 µM
[36]
  TGI: > 100 µM
[37]
  TGI: > 100 µM
[38]
  TGI: > 100 µM
[39]
  TGI: > 100 µM
[42]
  TGI: > 100 µM
[43]
  TGI: > 100 µM
[44]
  TGI: > 100 µM
[45]
  TGI: > 100 µM
[47]
  TGI: > 100 µM
[48]
  TGI: > 100 µM
[50]
  TGI: > 100 µM
[51]
  TGI: > 100 µM
[52]
  TGI: > 100 µM
[54]
  TGI: > 100 µM
[55]
  TGI: > 100 µM
[56]
  TGI: > 100 µM
[57]
  TGI: > 100 µM
[59]
  TGI: > 100 µM
[64]
  TGI: > 100 µM
[65]
  TGI: > 100 µM
